# Source: ChEMBL document CHEMBL4823243, “Synergistic induction of apoptosis in resistant head and neck carcinoma and leukemia by alkoxyamide-based histone deacetylase inhibitors” (Eur J Med Chem, 2021)
# pIC50: −log10 of the molar value. The source made the active and inactive calls. The calls are words filed in the database; no cut-off is given here.
# Experiments:
# [1] = system: A2780; test: Antiproliferative activity against human A2780 cells assessed as reduction in cell viability after 72 hrs by MTT assay; assay type: functional, cell-based; conditions: A2780, 72 h
# [2] = system: CAL-27; test: Antiproliferative activity against human CAL-27 cells assessed as reduction in cell viability after 72 hrs by MTT assay; assay type: functional, cell-based; conditions: CAL-27, 72 h
# [3] = target: Histone deacetylase; test: Inhibition of HDAC in human Cal27CisR cells assessed as potentiation of cisplatin-induced cytotoxicity by measuring cisplatin IC50 at 3 to 4 uM pretreated for 48 hrs followed by cisplatin addition and measured after 72 hrs by MTT assay (reference value: 3.57 uM); assay type: cell-based
# [4] = target: Histone deacetylase 4 (Homo sapiens, UniProt P56524); test: Inhibition of recombinant human N-terminal GST-fusion tagged/C-terminal GST-tagged HDAC4 (627 to 1084 residues) expressed in baculovirus infected insect cells using Boc-Lys(TFA)-AMC as substrate preincubated for 5 mins followed by substrate addition measured after 90 mins by fluorimetry
# [5] = target: T1, Histone deacetylase (Homo sapiens) (UniProt Q13547+O15379+Q9UBN7+Q92769+Q9UQL6+Q8WUI4+Q9BY41+Q96DB2+P56524+Q9UKV0+Q969S8); test: Inhibition of HDAC in human CAL-27 cells assessed as potentiation of cisplatin-induced cytotoxicity by measuring cisplatin IC50 at 3 to 4 uM pretreated for 48 hrs followed by cisplatin addition and measured after 72 hrs by MTT assay relative to cisplatin alone; assay type: cell-based; conditions: dose 3-4 µM, time 120.0 hrs
# [6] = target: Histone deacetylase; test: Inhibition of HDAC in human A2780 cells using Boc-Lys (acetyl)-AMC as substrate preincubated for 18 hrs followed by susbtrate addition and measured after 3 hrs by fluorescence microplate reader assay; assay type: cell-based
# [7] = target: T2, Histone deacetylase 8 (Homo sapiens, UniProt Q9BY41); test: Inhibition of recombinant human C-terminal His-fusion tagged/N-terminal Strep2 tagged HDAC8 (1 to 377 residues) expressed in insect cells using Boc-Lys(TFA)-AMC as substrate preincubated for 5 mins followed by substrate addition measured after 90 mins by fluorimetry
# T2 sequence (Q9BY41 whole entry): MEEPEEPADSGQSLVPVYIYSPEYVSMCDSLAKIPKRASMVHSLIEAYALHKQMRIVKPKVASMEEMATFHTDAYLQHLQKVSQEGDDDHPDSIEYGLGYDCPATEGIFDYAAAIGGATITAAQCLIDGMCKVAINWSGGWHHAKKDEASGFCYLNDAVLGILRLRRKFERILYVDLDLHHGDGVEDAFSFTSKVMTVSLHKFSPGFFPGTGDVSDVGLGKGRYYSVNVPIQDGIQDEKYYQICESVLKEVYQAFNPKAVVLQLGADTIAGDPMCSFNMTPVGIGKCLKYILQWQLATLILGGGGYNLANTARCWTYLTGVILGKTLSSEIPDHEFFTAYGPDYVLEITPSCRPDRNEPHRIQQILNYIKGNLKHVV
# [8] = target: T1, Histone deacetylase (Homo sapiens); test: Inhibition of HDAC in human Cal27CisR cells assessed as potentiation of cisplatin-induced cytotoxicity by measuring cisplatin IC50 at 3 to 4 uM pretreated for 48 hrs followed by cisplatin addition and measured after 72 hrs by MTT assay relative to cisplatin alone; assay type: cell-based; conditions: dose 3-4 µM, time 120.0 hrs
# [9] = target: Histone deacetylase; test: Inhibition of HDAC in human CAL-27 cells assessed as potentiation of cisplatin-induced cytotoxicity by measuring cisplatin IC50 at 3 to 4 uM pretreated for 48 hrs followed by cisplatin addition and measured after 72 hrs by MTT assay (reference value: 3.57 uM); assay type: cell-based
# [10] = target: Histone deacetylase 2 (Homo sapiens, UniProt Q92769); test: Inhibition of recombinant human full length C-terminal GST-fusion tagged HDAC2 expressed in baculovirus infected insect cells using Boc-Lys(Ac)-AMC as substrate preincubated for 5 mins followed by substrate addition measured after 90 mins by fluorimetry; assay type: cell-based
# [11] = target: Histone deacetylase; test: Inhibition of HDAC in human CAL-27 cells using Boc-Lys (acetyl)-AMC as substrate preincubated for 18 hrs followed by susbtrate addition and measured after 3 hrs by fluorescence microplate reader assay; assay type: cell-based
# [12] = target: T3, Protein deacetylase HDAC6 (Homo sapiens, UniProt Q9UBN7); test: Inhibition of recombinant human N-terminal GST-tagged HDAC6 (1 to 1215 residues) expressed in baculovirus infected insect cells using Boc-Lys(Ac)-AMC as substrate preincubated for 5 mins followed by substrate addition measured after 90 mins by fluorimetry
# T3 sequence (Q9UBN7 whole entry): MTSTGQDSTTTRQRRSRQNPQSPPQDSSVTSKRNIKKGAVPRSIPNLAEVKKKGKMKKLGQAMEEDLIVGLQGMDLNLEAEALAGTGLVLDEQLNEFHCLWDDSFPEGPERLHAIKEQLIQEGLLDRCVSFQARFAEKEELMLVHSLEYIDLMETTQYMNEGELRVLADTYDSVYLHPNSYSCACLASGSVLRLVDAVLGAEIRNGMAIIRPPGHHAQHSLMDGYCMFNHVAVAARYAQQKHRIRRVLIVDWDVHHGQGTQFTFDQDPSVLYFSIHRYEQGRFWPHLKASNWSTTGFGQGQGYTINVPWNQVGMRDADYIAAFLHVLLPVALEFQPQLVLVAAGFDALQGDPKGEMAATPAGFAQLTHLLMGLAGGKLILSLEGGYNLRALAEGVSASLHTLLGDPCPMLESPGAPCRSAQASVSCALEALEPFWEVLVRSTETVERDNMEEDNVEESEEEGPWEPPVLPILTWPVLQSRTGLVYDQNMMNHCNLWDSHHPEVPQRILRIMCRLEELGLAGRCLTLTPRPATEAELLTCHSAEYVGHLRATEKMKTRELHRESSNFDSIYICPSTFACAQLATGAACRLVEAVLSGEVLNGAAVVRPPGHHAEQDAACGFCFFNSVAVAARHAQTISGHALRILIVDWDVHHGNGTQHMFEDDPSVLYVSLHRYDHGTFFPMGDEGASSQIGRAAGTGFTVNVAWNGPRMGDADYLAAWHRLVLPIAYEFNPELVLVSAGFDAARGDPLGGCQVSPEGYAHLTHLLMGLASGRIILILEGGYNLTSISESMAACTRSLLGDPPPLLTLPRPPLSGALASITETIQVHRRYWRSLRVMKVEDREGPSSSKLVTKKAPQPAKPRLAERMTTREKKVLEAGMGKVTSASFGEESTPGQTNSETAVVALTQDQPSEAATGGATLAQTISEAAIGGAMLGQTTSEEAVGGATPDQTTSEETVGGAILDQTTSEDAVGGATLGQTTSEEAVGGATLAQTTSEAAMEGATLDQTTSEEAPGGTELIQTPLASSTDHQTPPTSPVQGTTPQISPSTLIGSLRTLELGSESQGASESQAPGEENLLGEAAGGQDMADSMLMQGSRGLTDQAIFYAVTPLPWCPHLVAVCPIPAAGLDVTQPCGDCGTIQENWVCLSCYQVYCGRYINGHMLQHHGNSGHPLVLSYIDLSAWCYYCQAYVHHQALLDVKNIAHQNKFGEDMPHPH
# [13] = target: Histone deacetylase; test: Inhibition of HDAC in human Cal27CisR cells assessed as potentiation of cisplatin-induced cytotoxicity by measuring cisplatin IC50 at 0.3 to 0.5 uM pretreated for 48 hrs followed by cisplatin addition and measured after 72 hrs by MTT assay (reference value: 3.57 uM); assay type: cell-based
# [14] = target: Histone deacetylase; test: Inhibition of HDAC in human CAL-27 cells assessed as potentiation of cisplatin-induced cytotoxicity by measuring cisplatin IC50 at 0.3 to 0.5 uM pretreated for 48 hrs followed by cisplatin addition and measured after 72 hrs by MTT assay (reference value: 3.57 uM); assay type: cell-based
# [15] = target: T4, Protein deacetylase HDAC6 (Homo sapiens) (UniProt Q9UBN7); test: Inhibition of HDAC6 in human CAL-27 cells assessed as accumulation of acetylated alpha-tubulin at 5 uM for 24 hrs by Western blot analysis; assay type: cell-based
# T4 sequence (whole entry): T3 sequence (Q9UBN7 whole entry)
# [16] = target: T1, Histone deacetylase (Homo sapiens); test: Inhibition of HDAC in human Cal27CisR cells assessed as potentiation of cisplatin-induced cytotoxicity by measuring fold reduction in cisplatin IC50 at 0.3 to 0.5 uM pretreated for 48 hrs followed by cisplatin addition and measured after 72 hrs by MTT assay relative to cisplatin alone; assay type: cell-based; conditions: dose 0.3-0.5 µM, time 120.0 hrs
# [17] = target: T1, Histone deacetylase (Homo sapiens); test: Inhibition of HDAC in human CAL-27 cells assessed as potentiation of cisplatin-induced cytotoxicity by measuring fold reduction in cisplatin IC50 at 0.3 to 0.5 uM pretreated for 48 hrs followed by cisplatin addition and measured after 72 hrs by MTT assay relative to cisplatin alone; assay type: cell-based; conditions: dose 0.3-0.5 µM, time 120.0 hrs
# [18] = system: HL-60; test: Antiproliferative activity against human HL-60 cells assessed as reduction in cell viability for 72 hrs by Celltitre-Glo luminescent assay; assay type: functional, cell-based; conditions: HL-60, 72 h
# [19] = Inhibition of Class 1/2b HDAC in human HL-60 cells by HDAC-Glo assay; assay type: cell-based
# [20] = target: T4, Protein deacetylase HDAC6 (Homo sapiens); test: Inhibition of HDAC6 in human CAL-27 cells assessed as accumulation of acetylated alpha-tubulin at 1 uM for 24 hrs by Western blot analysis; assay type: cell-based
# Sequence of Histone deacetylase 2 (Q92769 whole entry, the tested form may be a part): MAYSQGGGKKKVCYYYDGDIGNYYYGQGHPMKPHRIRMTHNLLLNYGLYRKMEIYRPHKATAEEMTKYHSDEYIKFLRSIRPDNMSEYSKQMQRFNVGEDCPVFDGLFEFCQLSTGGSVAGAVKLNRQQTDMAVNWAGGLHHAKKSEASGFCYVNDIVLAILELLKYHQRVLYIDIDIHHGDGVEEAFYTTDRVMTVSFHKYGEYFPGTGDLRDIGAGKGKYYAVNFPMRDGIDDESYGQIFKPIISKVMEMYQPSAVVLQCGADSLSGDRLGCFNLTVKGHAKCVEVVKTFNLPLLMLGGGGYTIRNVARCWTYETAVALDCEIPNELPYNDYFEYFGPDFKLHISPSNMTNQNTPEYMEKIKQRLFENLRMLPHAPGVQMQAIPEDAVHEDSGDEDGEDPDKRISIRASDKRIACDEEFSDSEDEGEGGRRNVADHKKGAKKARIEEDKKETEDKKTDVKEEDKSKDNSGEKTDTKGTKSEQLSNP
# Sequence of Histone deacetylase 4 (P56524 whole entry, the tested form may be a part): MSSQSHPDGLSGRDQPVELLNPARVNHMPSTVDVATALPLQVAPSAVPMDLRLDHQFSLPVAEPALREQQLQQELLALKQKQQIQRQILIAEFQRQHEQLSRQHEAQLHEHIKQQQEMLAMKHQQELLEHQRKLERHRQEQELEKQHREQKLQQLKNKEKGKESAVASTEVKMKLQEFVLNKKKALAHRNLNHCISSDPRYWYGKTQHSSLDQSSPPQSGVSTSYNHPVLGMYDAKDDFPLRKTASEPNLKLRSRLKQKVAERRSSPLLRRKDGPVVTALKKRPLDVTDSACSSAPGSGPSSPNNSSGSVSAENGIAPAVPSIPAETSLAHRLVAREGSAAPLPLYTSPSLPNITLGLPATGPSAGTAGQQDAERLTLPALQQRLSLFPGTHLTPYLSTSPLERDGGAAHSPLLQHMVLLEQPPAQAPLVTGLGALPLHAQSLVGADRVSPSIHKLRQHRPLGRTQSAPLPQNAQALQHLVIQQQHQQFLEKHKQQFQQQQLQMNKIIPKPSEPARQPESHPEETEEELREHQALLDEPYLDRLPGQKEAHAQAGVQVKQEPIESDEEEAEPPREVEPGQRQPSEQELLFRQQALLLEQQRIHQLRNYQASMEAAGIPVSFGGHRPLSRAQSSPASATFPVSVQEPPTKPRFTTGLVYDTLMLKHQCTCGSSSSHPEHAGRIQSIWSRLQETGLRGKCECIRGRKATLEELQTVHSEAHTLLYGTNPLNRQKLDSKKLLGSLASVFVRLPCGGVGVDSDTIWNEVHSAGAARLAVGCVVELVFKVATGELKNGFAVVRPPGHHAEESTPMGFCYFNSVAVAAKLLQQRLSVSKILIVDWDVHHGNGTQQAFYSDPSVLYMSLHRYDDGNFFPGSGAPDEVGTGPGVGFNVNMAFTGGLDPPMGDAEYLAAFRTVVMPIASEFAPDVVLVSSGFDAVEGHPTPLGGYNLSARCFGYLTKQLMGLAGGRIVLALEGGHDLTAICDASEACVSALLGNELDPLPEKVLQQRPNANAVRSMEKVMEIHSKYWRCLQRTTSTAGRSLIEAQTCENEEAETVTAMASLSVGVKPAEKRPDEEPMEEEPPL
pIC50 [1],IC50 [6],IC50 [11],Structure (SMILES),pIC50 [2],other results
5.11,0.19 µM,0.49 µM,O=C(CCCCCONC(=O)c1cnc2ccccc2n1)NO,6.10,IC50 [3]: 18.7 µM; pIC50 [4]: 4.22; Ratio IC50 [5]: 1.23; pIC50 [7]: 5.10; Ratio IC50 [8]: 2.6; IC50 [9]: 2.9 µM; pIC50 [10]: 7.36; pIC50 [12]: 7.74
5.11,1.36 µM,0.81 µM,O=C(CCCCCONC(=O)c1c[nH]c2ccccc12)NO,5.77,
5.12,0.85 µM,0.45 µM,O=C(CCCCCONC(=O)c1ccc2[nH]ccc2c1)NO,5.89,
5.28,0.74 µM,0.48 µM,O=C(CCCCCONC(=O)c1cccc2[nH]ccc12)NO,5.92,
5.25,1.71 µM,1.99 µM,O=C(CCCCCONC(=O)c1cc2ccccc2o1)NO,6.11,
4.95,0.6 µM,0.4 µM,O=C(CCCCCONC(=O)c1ccc2cc[nH]c2c1)NO,5.37,
6.00,0.35 µM,0.1 µM,O=C(CCCCCONC(=O)c1ccc2ccccc2c1)NO,6.74,IC50 [13]: 9.53 µM; IC50 [14]: 2.32 µM; pIC50 [4]: 4.29; pIC50 [7]: 5.42; inhibition [15]: Active; Ratio IC50 [16]: 5.09; Ratio IC50 [17]: 1.54; pIC50 [10]: 7.39; pIC50 [12]: 7.96
5.12,0.71 µM,0.43 µM,O=C(CCCCCONC(=O)c1[nH]nc2ccccc12)NO,5.74,
,,,O=C(CCCCCCNC(=O)c1cnc(N(c2ccccc2)c2ccccc2)nc1)NO [RICOLINOSTAT],,pIC50 [18]: < 5.00; pIC50 [19]: 6.04
6.00,0.64 µM,0.46 µM,O=C(CCCCCONC(=O)c1cccc2cc[nH]c12)NO,6.00,
5.31,1.58 µM,2.25 µM,O=C(CCCCCONC(=O)c1cc2ccccc2s1)NO,6.30,
,,,CC(C)(C)OC(=O)Nc1ccc(-c2cc(C(=O)NCCCCCCC(=O)NO)no2)cc1,,pIC50 [18]: 6.23; pIC50 [19]: 6.96
4.66,2.7 µM,3.16 µM,O=C(CCCCCONC(=O)c1nc2ccccc2s1)NO,5.20,
,,,Nc1ccccc1NC(=O)c1ccc(CNC(=O)OCc2cccnc2)cc1,,inhibition [20]: inactive
< 4.00,9.08 µM,4.17 µM,O=C(CCCCCONC(=O)c1nc2ccccc2[nH]1)NO,4.24,
4.15,7.68 µM,5.97 µM,O=C(CCCCCONC(=O)c1ccnc2ccccc12)NO,4.92,
5.20,3.71 µM,1.72 µM,O=C(CCCCCONC(=O)Cc1ccc2ccccc2c1)NO,5.45,
5.12,2.39 µM,1.89 µM,O=C(CCCCCONC(=O)c1cccc2ccccc12)NO,5.38,
